Experimental data as given in patent US9708639B2, “Method for quantifying amino acids with pyrophosphate” (TOYAMA PREFECTURE, priority 2012, dated 2017).

Columns and labels:
Test in all cases: Qualitative test of AARS substrate specificity (molybdenum blue method)
Format in all cases: biochemical, Thermotoga maritima MSB8 strain
Design in all cases: key: +: Activity was detected; −: Activity was not detected
Thermotoga-derived CysRS = target: T1, Thermotoga-derived CysRS (Thermotoga maritima, UniProt Q9WZH8); conditions: Tyr 1 mM, other amino acids 5 mM; hydroxylamine 1000 mM; CysRS 0.3 mg/ml (8 mU/ml); 30° C.
T1 construct: The amplification products were each inserted into pET-28a to obtain plasmids for expression of respective AARSs; His tag (C); made in house; host or cells: Escherichia coli BL21 (DE3)
T1 sequence (Q9WZH8 1-460): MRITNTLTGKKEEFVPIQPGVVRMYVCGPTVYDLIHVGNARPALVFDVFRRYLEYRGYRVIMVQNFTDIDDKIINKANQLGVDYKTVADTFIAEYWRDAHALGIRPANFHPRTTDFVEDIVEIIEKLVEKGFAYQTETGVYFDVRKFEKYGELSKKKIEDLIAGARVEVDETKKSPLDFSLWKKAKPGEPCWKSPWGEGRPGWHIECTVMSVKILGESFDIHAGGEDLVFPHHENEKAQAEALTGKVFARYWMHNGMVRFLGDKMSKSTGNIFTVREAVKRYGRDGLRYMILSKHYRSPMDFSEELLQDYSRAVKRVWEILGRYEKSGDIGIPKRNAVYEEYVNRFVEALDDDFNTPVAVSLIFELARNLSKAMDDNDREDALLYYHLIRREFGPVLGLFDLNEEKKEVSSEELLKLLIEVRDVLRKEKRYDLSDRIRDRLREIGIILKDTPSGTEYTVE
Procedure: (§1) A test sample containing an amino acid as the measurement subject and a reaction mixture for quantifying amino acid having the following composition were mixed. The mixture was left standing at 30° C. to allow the AARS reaction to advance. The mixture in a volume of 33 μl, 66 μl of water, and 1 μl of a 300 U/ml yeast pyrophosphatase solution were mixed, and left standing at room temperature for 20 minutes to allow the pyrophosphatase reaction to advance. Then, the reaction mixture was mixed with 100 μl of a color development solution A and 30 μl of a color developing solution B having the following compositions, then the mixture was left standing at room temperature for 5 minutes, and the absorbance was measured at 700 nm or 900 nm with a microplate reader.
(§2) Reaction mixture for quantifying amino acid: 20 mM Tris-HCl (pH 7.0), 5 mM MgCl2, 2 mM ATP, and AARS (concentrations are final concentrations obtained after mixing with test sample)
(§3) Color developing solution A: A solution obtained by mixing water and concentrated sulfuric acid at a ratio of 3:1 and dissolving (NH4)6Mo7O24.4H2O in the mixture at a concentration of 0.066 g/ml
(§4) Color developing solution B: A solution obtained by mixing water and concentrated sulfuric acid at a ratio of 10000:7 and dissolving FeSO4.7H2O in the mixture at a concentration of 145 mg/ml
(§5) Presence or absence of pyrophosphate generation was verified for the Thermotoga-derived CysRS, HisRS, LysRS, ProRS, SerRS, TrpRS, and TyrRS by using the AARS activity measurement method described in 9. and standard solutions of the various amino acids as test samples. AARSs were added to the reaction mixture at final concentrations of 0.3 (8 mU/ml), 0.1, 0.2 (3 mU/ml), 0.2, 0.1 (1 mU/ml), 0.1, 0.2 (20 mU/ml) mg/ml, respectively. The reaction mixtures were prepared so that the final concentration of Tyr was 1 mM, and the final concentrations of the other amino acids were 5 mM. As for the hydroxylamine concentration, it was added at a final concentration of 1000 mM for all the cases. Further, presence or absence of pyrophosphate production was also verified for the Thermus-derived MetRS and TyrRS by using the AARS activity measurement method described in 10. and standard solutions of the various amino acids as test samples. The reaction mixtures were prepared so that the final concentrations of the amino acids were 200 μM. Hydroxylamine was added at a final concentration of 400 mM.
(§6) Detection or no detection of the activity in the reaction mixtures containing a combination of each AARS and amino acid are shown in Table 2. The symbol + indicates detection of the activity, and − indicates no detection of the activity.

Thermotoga-derived HisRS = target: T2, Thermotoga-derived HisRS (Thermotoga maritima, UniProt Q9X0H5); conditions: Tyr 1 mM, other amino acids 5 mM; hydroxylamine 1000 mM; HisRS 0.1 mg/ml; 30° C.
T2 construct: His tag (C); made in house; host or cells: Escherichia coli BL21 (DE3)
T2 sequence (Q9X0H5 1-420): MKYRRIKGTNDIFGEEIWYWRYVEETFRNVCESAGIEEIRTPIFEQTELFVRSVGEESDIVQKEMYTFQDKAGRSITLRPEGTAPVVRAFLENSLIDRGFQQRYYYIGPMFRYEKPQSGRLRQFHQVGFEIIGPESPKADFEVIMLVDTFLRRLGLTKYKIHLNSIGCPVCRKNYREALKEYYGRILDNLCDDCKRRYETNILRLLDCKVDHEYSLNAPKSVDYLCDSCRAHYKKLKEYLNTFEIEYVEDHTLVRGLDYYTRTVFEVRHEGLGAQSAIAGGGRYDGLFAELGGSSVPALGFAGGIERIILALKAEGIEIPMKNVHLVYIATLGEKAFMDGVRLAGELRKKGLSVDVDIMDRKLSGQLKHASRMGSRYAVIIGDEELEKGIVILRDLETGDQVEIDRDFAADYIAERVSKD
Procedure: as §1, §2, §3, §4, §5, §6

Thermotoga-derived ProRS = target: T3, Thermotoga-derived ProRS (Thermotoga maritima, UniProt Q9WYY4); conditions: Tyr 1 mM, other amino acids 5 mM; hydroxylamine 1000 mM; ProRS 0.2 mg/ml; 30° C.
T3 construct: His tag (C); made in house; host or cells: Escherichia coli BL21 (DE3)
T3 sequence (Q9WYY4 1-577): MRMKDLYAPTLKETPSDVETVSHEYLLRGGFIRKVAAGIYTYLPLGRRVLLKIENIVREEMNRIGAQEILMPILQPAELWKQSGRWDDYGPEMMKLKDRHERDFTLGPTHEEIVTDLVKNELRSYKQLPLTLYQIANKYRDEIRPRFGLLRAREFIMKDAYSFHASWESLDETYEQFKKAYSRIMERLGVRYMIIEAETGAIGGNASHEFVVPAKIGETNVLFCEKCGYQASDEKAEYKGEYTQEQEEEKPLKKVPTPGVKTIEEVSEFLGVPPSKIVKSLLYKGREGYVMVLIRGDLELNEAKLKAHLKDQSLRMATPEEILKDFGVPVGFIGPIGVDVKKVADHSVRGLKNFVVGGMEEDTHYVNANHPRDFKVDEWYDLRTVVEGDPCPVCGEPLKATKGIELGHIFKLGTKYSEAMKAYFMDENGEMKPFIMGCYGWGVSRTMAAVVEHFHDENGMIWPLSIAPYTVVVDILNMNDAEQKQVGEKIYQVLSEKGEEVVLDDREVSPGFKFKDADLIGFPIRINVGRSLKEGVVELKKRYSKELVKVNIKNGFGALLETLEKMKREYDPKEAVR
Procedure: as §1, §2, §3, §4, §5, §6

Compound	Detection of the activity (pyrophosphate generation), CysRS (Thermotoga-derived CysRS)	Detection of the activity (pyrophosphate generation), HisRS (Thermotoga-derived HisRS)	Detection of the activity (pyrophosphate generation), ProRS (Thermotoga-derived ProRS)
C[C@H](N)C(=O)O [Ala, L-alanine]	−	−	−
N=C(N)NCCC[C@H](N)C(=O)O [Arg, L-arginine]	−	−	−
NC(=O)C[C@H](N)C(=O)O [Asn, L-asparagine]	−	−	−
N[C@@H](CC(=O)O)C(=O)O [Asp, L-aspartic acid]	−	−	−
N[C@@H](CS)C(=O)O [Cys, L-cysteine]	+	−	−
NC(=O)CC[C@H](N)C(=O)O [Gln, L-glutamine]	−	−	−
N[C@@H](CCC(=O)O)C(=O)O [Glu, L-glutamic acid]	−	−	−
NCC(=O)O [Gly, glycine]	−	−	−
N[C@@H](Cc1c[nH]cn1)C(=O)O [His, L-histidine]	−	+	−
CC[C@H](C)[C@H](N)C(=O)O [Ile, L-isoleucine]	−	−	−
CC(C)C[C@H](N)C(=O)O [Leu, L-leucine]	−	−	−
NCCCC[C@H](N)C(=O)O [Lys, L-lysine]	−	−	−
CSCC[C@H](N)C(=O)O [Met, L-methionine]	−	−	−
N[C@@H](Cc1ccccc1)C(=O)O [Phe, L-phenylalanine]	−	−	−
O=C(O)[C@@H]1CCCN1 [Pro, L-proline]	−	−	+
N[C@@H](CO)C(=O)O [Ser, L-serine]	−	−	−
C[C@@H](O)[C@H](N)C(=O)O [Thr, L-threonine]	−	−	−
N[C@@H](Cc1c[nH]c2ccccc12)C(=O)O [Trp, L-tryptophan]	−	−	−
N[C@@H](Cc1ccc(O)cc1)C(=O)O [Tyr, L-tyrosine]	−	−	−
CC(C)[C@H](N)C(=O)O [Val, L-valine]	−	−	−
